Experimental data as given in the supplement of paper PMC13380429.

How the values were obtained:
Details in all cases: 72 h
Caco-2 [1] = assay: cell viability relative to DMSO; higher = less toxic
Calu-3 [2] = assay: as above
HepG2 [3] = assay: as above
U2OS [4] = assay: as above
Vero E6 [5] = assay: as above
Caco-2 [6] = assay: relative viability EC50 (midpoint between 100% and the lowest measured viability); higher = less toxic
Calu-3 [7] = assay: as above
HepG2 [8] = assay: as above
U2OS [9] = assay: as above
Vero E6 [10] = assay: as above
Caco-2 [11] = assay: drug sensitivity score (DSS) for viability; higher = more toxic; extreme values may be limits of the assay
Calu-3 [12] = assay: as above
HepG2 [13] = assay: as above
U2OS [14] = assay: as above
Vero E6 [15] = assay: as above

Row | SMILES | cell viability (Caco-2 [1]; 1 nM) [%] | cell viability (Caco-2 [1]; 10 nM) [%] | cell viability (Caco-2 [1]; 100 nM) [%] | cell viability (Caco-2 [1]; 1000 nM) [%] | cell viability (Caco-2 [1]; 10000 nM) [%] | cell viability (Calu-3 [2]; 1 nM) [%] | cell viability (Calu-3 [2]; 10 nM) [%] | cell viability (Calu-3 [2]; 100 nM) [%] | cell viability (Calu-3 [2]; 1000 nM) [%] | cell viability (Calu-3 [2]; 10000 nM) [%] | cell viability (HepG2 [3]; 1 nM) [%] | cell viability (HepG2 [3]; 10 nM) [%] | cell viability (HepG2 [3]; 100 nM) [%] | cell viability (HepG2 [3]; 1000 nM) [%] | cell viability (HepG2 [3]; 10000 nM) [%] | cell viability (U2OS [4]; 1 nM) [%] | cell viability (U2OS [4]; 10 nM) [%] | cell viability (U2OS [4]; 100 nM) [%] | cell viability (U2OS [4]; 1000 nM) [%] | cell viability (U2OS [4]; 10000 nM) [%] | cell viability (Vero E6 [5]; 1 nM) [%] | cell viability (Vero E6 [5]; 10 nM) [%] | cell viability (Vero E6 [5]; 100 nM) [%] | cell viability (Vero E6 [5]; 1000 nM) [%] | cell viability (Vero E6 [5]; 10000 nM) [%] | relative viability EC50 (Caco-2 [6]) [µM] | relative viability EC50 (Calu-3 [7]) [µM] | relative viability EC50 (HepG2 [8]) [µM] | relative viability EC50 (U2OS [9]) [µM] | relative viability EC50 (Vero E6 [10]) [µM] | drug sensitivity score (Caco-2 [11]) | drug sensitivity score (Calu-3 [12]) | drug sensitivity score (HepG2 [13]) | drug sensitivity score (U2OS [14]) | drug sensitivity score (Vero E6 [15])
1 | CC(=O)c1ccc(NS(C)(=O)=O)c(Oc2ccc(F)cc2F)c1 [FK-3311] | 99 | 90.1 | 96.9 | 94 | 95.8 | 110 | 93.1 | 103 | 109 | 114 | 98.3 | 107 | 98.6 | 99.5 | 87.3 | 104 | 98.1 | 98.7 | 97.2 | 102 | 98.3 | 101 | 96.2 | 102 | 92.8 | > 10 | > 10 | > 10 | > 10 | > 10 | 0 | 0 | 0.1 | 0 | 0
2 | CC1(COc2ccc(CC3SC(=O)NC3=O)cc2)CCCCC1 (stereo not given) [ciglitazone] | 98.7 | 99.2 | 99.1 | 92.9 | 95.2 | 104 | 98.4 | 92.9 | 98 | 102 | 101 | 99.8 | 98.2 | 108 | 105 | 95.3 | 99.8 | 102 | 100 | 100 | 94.6 | 97 | 92.7 | 94.1 | 96.5 | > 10 | > 10 | > 10 | > 10 | > 10 | 0 | 0 | 0 | 0 | 0
3 | CC1=CC(=C(c2ccc(N)cc2)c2ccc(N)cc2)C=CC1=N [basic-fuchsin] | 88.8 | 92.4 | 106 | 77.6 | 18.6 | 92.3 | 102 | 103 | 87.1 | 19.5 | 102 | 97 | 104 | 83 | 7.8 | 97.8 | 97.9 | 95.2 | 86.5 | 12.8 | 97.2 | 91 | 94.8 | 82.3 | 29.8 | 1.47 | 1.93 | 1.81 | 1.96 | 1.54 | 7.9 | 6.6 | 7.9 | 7.1 | 6.6
4 | c1ccc(CNc2ncnc3[nH]cnc23)cc1 [6-benzylaminopurine] | 97 | 107 | 90.8 | 109 | 112 | 99.9 | 98.4 | 120 | 97.3 | 112 | 98.3 | 106 | 98.9 | 109 | 98.4 | 106 | 97.9 | 103 | 99.5 | 100 | 97.1 | 104 | 95.6 | 95 | 104 | > 10 | > 10 | > 10 | > 10 | > 10 | 0 | 0 | 0 | 0 | 0
5 | O=C(O)CSCC(=O)NC1CCSC1=O (stereo not given) [erdosteine] | 107 | 102 | 97 | 84.8 | 96.9 | 99.8 | 96 | 102 | 92.9 | 98 | 90.5 | 102 | 94.3 | 93.8 | 102 | 100 | 105 | 96.2 | 97.9 | 101 | 111 | 96.9 | 104 | 91 | 96.8 | > 10 | > 10 | > 10 | > 10 | > 10 | 0 | 0 | 0 | 0 | 0
6 | O=C(CN1CCN(Cc2ccc3c(c2)OCO3)CC1)N1c2ccccc2Sc2ccccc21 [fenoverine] | 106 | 110 | 105 | 98.5 | 82.7 | 92.8 | 109 | 99.2 | 103 | 110 | 94.6 | 104 | 101 | 90 | 90.3 | 95.1 | 97.2 | 98.1 | 94.9 | 96.7 | 87.4 | 98.2 | 98.4 | 95 | 84.7 | > 10 | > 10 | > 10 | > 10 | > 10 | 0.6 | 0 | 0 | 0 | 0
7 | CCNC(=O)/C=C/c1cccc(Br)c1 [cinromide] | 99.1 | 96.4 | 105 | 87.2 | 92.4 | 102 | 101 | 106 | 91.5 | 107 | 105 | 96.5 | 106 | 97.5 | 96.8 | 101 | 96.7 | 99 | 96.3 | 98.5 | 110 | 83.6 | 97.1 | 101 | 95.6 | > 10 | > 10 | > 10 | > 10 | > 10 | 0.7 | 0 | 0 | 0 | 0
8 | O=c1[nH]cnc2c([C@@H]3N[C@H](CO)[C@@H](O)[C@H]3O)c[nH]c12 [forodesine] | 103 | 98.4 | 98.4 | 101 | 98.6 | 92.4 | 89 | 97.2 | 91.5 | 94.4 | 106 | 104 | 110 | 92.6 | 102 | 102 | 97.6 | 94.4 | 103 | 98 | 103 | 96.8 | 96.8 | 97.2 | 94.7 | > 10 | > 10 | > 10 | > 10 | > 10 | 0 | 0 | 0 | 0 | 0
9 | CCCCC/C=C\C/C=C\CCCCCCCC(=O)NCCCC(=O)O [GABA-linoleamide] | 96.9 | 110 | 96.2 | 87.5 | 126 | 86 | 97.9 | 87 | 111 | 90.6 | 74.4 | 97.2 | 95.6 | 98.2 | 120 | 95.2 | 97.9 | 99.3 | 102 | 95.8 | 106 | 108 | 111 | 99.1 | 114 | > 10 | > 10 | > 10 | > 10 | > 10 | 0 | 0 | 0 | 0 | 0
10 | CN(C)c1cccc(-c2c3c(=O)n(-c4ccccc4Cl)[nH]c3cc(=O)n2C)c1 | 100 | 98.3 | 101 | 93.1 | 84.6 | 89.9 | 91.3 | 100 | 97.7 | 92.6 | 99.2 | 104 | 94.2 | 97.2 | 87.6 | 99.8 | 96.6 | 101 | 95.2 | 93.7 | 101 | 104 | 99.6 | 102 | 104 | > 10 | > 10 | > 10 | > 10 | > 10 | 0.8 | 0 | 0 | 0 | 0
11 | COC(=O)[C@H](Cc1ccc([N+](=O)[O-])cc1)NC(=O)c1cccc2ccccc12 | 99.8 | 98.7 | 99.4 | 95.6 | 89 | 101 | 95.8 | 92.8 | 100 | 109 | 102 | 97.1 | 105 | 101 | 107 | 94.2 | 99 | 96.6 | 99.5 | 100 | 94.4 | 96.7 | 90.8 | 87.4 | 101 | > 10 | > 10 | > 10 | > 10 | > 10 | 0 | 0 | 0 | 0 | 0
12 | CC1(CN2CCC(n3c(=O)[nH]c4ccccc43)CC2)OCc2ccccc2-n2cccc21 (stereo not given) [zaldaride] | 99.6 | 91.6 | 101 | 88.1 | 93.1 | 86.3 | 96.1 | 101 | 84.7 | 94.5 | 94.9 | 96.4 | 86.6 | 104 | 76 | 102 | 94.6 | 98 | 95.7 | 99.1 | 98.9 | 97.7 | 98.7 | 100 | 89.9 | > 10 | > 10 | > 10 | > 10 | > 10 | 0 | 0 | 0.7 | 0 | 0
13 | CN(C)c1ccc(C(=C2C=CC(=[N+](C)C)C=C2)c2ccc(N(C)C)cc2)cc1 [crystal-violet] | 86.3 | 94.9 | 80.9 | 21.4 | 4.4 | 100 | 94 | 104 | 31.5 | 2.1 | 112 | 89.9 | 111 | 10.7 | 3.6 | 96.6 | 100 | 96.4 | 17.4 | -0.4 | 96 | 89.5 | 100 | 6.8 | -0.4 | 0.295 | 0.715 | 0.432 | 0.477 | 0.383 | 16.9 | 13.3 | 15.7 | 15.6 | 16.9
